From the NIST ThermoML archive (doi:10.1021/je800618x)
Numbers after ± are expanded uncertainties.

Conditions: Crystal; DTA

- Normal melting temperature: 103.20 ± 0.41 °C
Compound: CC[n+]1ccccc1.F[P-](F)(F)(F)(F)F [1-ethylpyridinium hexafluorophosphate]
